Results as given in BindingDB's records for doi:10.1016/j.ejmech.2018.11.076 (Shaoxing University, 2019).
pIC50: −log10 of the molar value.

What was measured:
[1] = biological target: T1, Cyclin-C (Homo sapiens, UniProt P24863); assay: Inhibition of recombinant full-length human His-tagged CDK8/cyclinC expressed in baculovirus expression system by Lantha screen assay
T1 sequence (P24863 whole entry): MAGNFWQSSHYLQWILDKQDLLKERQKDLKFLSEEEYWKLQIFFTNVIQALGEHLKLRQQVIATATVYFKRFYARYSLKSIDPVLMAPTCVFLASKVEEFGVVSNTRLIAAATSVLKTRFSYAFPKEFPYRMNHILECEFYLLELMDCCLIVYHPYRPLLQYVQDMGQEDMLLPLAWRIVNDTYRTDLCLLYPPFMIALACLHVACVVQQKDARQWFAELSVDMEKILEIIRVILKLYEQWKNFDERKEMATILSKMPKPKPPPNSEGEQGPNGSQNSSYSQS

[2] = biological target: T1, Cyclin-C; assay: Displacement of Kinase tracer 236 from recombinant full-length human N-terminal GST-fused CDK8 (1 to 464 residues)/cyclin C (1 to 283 residues) expressed in baculovirus expression system after 60 mins by TR-FRET assay

pIC50 [1]	pIC50 [2]	SMILES
6.30		CC1CCc2nc(N)c(C#N)c(-c3cccnc3)c2C1 (configuration not stated) [2-azanyl-6-methyl-4-pyridin-3-yl-5,6,7,8-tetrahydroquinoline-3-carbonitrile]
	8.80	Cc1ncccc1Oc1sc(C(N)=O)c2c1-c1c(cnn1C)CC2
